The text below walks through data of patent US7211572B2 (Japan Tobacco Inc., priority 2003, dated 2007).

The term IC50 denotes the concentration that inhibits the measured activity by half.

The assay addresses T1, HIV integrase (Human immunodeficiency virus type 1 group M subtype B, UniProt P12497, F1332H).
T1 construct: HIV integrase full length gene; made in house; host or cells: Escherichia coli BL21(DE3), plasmid pET21a-INH
Nature of the assay: Determination of enzyme (HIV integrase) inhibitory activity. In kind it is biochemical. To be noted: recombinant HIV integrase (F185H), strand transfer ELISA, absorbance at 450 nm. From the text: The following explains evaluation methods of the HIV integrase inhibitory activity of the compound of the present invention.
(i) Construction of Recombinant Integrase Gene Expression System
The 185th phenylalanine of HIV integrase full length gene (J. Virol., 67, 425–437 (1993)) was substituted by histidine and inserted into the restriction enzyme NdeI and XhoI sites of plasmid pET21a(+) (Novagen), whereby an integrase expression vector pET21a-INH was constructed.
(ii) Production and Purification of Integrase Protein
Escherichia coli recombinant BL21(DE3) transformed with plasmid pET21a-INH obtained in (i) was shake cultured at 37° C. in a liquid medium containing ampicillin. When the culture reached the logarithmic growth phase, isopropyl-β-D-thiogalactopyranoside was added to promote expression of integrase gene. The culture was continued for 3 hr to promote accumulation of the integrase protein. The recombinant E. coli was collected in pellets by centrifugal separation and preserved at −80° C.
The E. coli was suspended in Lysis buffer (20 mM HEPES (pH 7.5), 5 mM DTT, 10 mM CHAPS, 10% glycerol) containing 1M sodium chloride and subjected to repeat pressurization and depressurization for rupture, and centrifugal separation at 4° C., 40,000×g, 60 min to recover a water-soluble fraction (supernatant). This was diluted 10-fold with Lysis buffer free of sodium chloride, mixed with SP-Sepharose (Pharmacia Corporation) and stirred at 4° C. for 30 min to allow adsorption of integrase protein to the resin. The resin was washed with Lysis buffer containing 100 mM sodium chloride and the integrase protein was eluted with Lysis buffer containing 1M sodium chloride.
The eluted integrase protein solution was applied to a Superdex 75 (Pharmacia Corporation) column for gel filtration. The protein was eluted with Lysis buffer containing 1M sodium chloride.
The obtained fractions of the integrase protein were collected and preserved at −80° C.
(iii) Preparation of DNA Solution
The following DNA synthesized by Greiner was dissolved in TE buffer (10 mM Tris-hydrochloric acid (pH 8.0), 1 mM EDTA) and mixed with donor DNA, target DNA, and each complementary strand (+ and − strands) to 1 μM. The mixture was heated at 95° C. for 5 min, 80° C. for 10 min, 70° C. for 10 min, 60° C. for 10 min, 50° C. for 10 min and 40° C. for 10 min and preserved at 25° C. to give a double stranded DNA, which was used for the test.
Donor DNA (− strand having biotin attached to the 5′ terminal)
(iv) Determination of Enzyme (HIV Integrase) Inhibitory Activity
The donor DNA was diluted with TE buffer to 10 nM, of which 50 μl was added to each well of streptavidin-coated microtiter plate (Roche) and allowed to adsorb at 37° C. for 60 min. The DNA was washed with phosphate buffer (Dulbecco PBS, Sanko Junyaku Co., Ltd.) containing 0.1% Tween 20 and phosphate buffer. Then, a reaction mixture (70 μl) having the following composition, a test substance (10 μl) diluted with the reaction mixture and 100 μg/ml integrase protein (10 μl) were added to each well and reacted at 37° C. for 60 min.
Composition of the reaction mixture: 30 mM MOPS (3-morpholinopropanesulfonic acid), 5 mM magnesium chloride, 3 mM DTT (dithiothreitol), 0.1 mg/ml BSA (bovine serum albumin), 5% glycerol, 10% DMSO (dimethyl sulfoxide), 0.01% Tween 20.
Then, 50 nM target DNA (10 μl) was added, reacted at 37° C. for 10 min and washed with phosphate buffer containing 0.1% Tween 20 to stop the reaction.
Then, 100 mU/ml peroxidase labeled anti-digoxigenin antibody solution (Roche, 100 μl) was added, and the mixture was reacted at 30° C. for 60 min, followed by washing with phosphate buffer containing 0.1% Tween 20.
A peroxidase color solution (Bio Rad, 100 μl) was added and allowed to react at room temperature for 4 min. The color reaction was stopped by adding 1N sulfuric acid (100 μl). The absorbance at 450 nm was measured. […]

Where a name gives a salt, the structure may show the parent alone. Some results are limits rather than exact numbers.

For the molecule `O=C1c2c(O)c(=O)ccn2CCN1Cc1ccc(Cl)c(F)c1` [Example 57, 2-(4-chloro-3-fluorobenzyl)-9-hydroxy-3,4-dihydro-2H-pyrido[1,2-a]pyrazine-1,8-dione], the IC50 fell in the range of 10 to 100 nM.
Consider `O=C(c1ccccc1)c1cc(=O)c(O)c2n1CCN(Cc1ccc(Cl)c(Cl)c1)C2=O` [Example 58, 6-benzoyl-2-(3,4-dichlorobenzyl)-9-hydroxy-3,4-dihydro-2H-pyrido[1,2-a]pyrazine-1,8-dione], for which the half-inhibitory concentration (IC50) is < 10 nM.
`CCC(=O)c1cc(=O)c(O)c2n1CCN(Cc1ccc(Cl)c(Cl)c1)C2=O` [Example 59, 2-(3,4-dichlorobenzyl)-9-hydroxy-6-propionyl-3,4-dihydro-2H-pyrido[1,2-a]pyrazine-1,8-dione]: the IC50 is < 10 nM.
The figure for `Cc1cc(=O)c(O)c2n1CCN(Cc1ccc(Cl)c(Cl)c1)C2=O` [Example 60, 2-(3,4-dichlorobenzyl)-9-hydroxy-6-methyl-3,4-dihydro-2H-pyrido[1,2-a]pyrazine-1,8-dione] is 10 to 100 nM; for `CCN(CC)C(=O)c1cc(=O)c(O)c2n1CCN(Cc1ccc(Cl)c(Cl)c1)C2=O` [Example 61, N,N-diethyl-2-(3,4-dichlorobenzyl)-9-hydroxy-1,8-dioxo-1,3,4,8-tetrahydro-2H-pyrido[1,2-a]pyrazine-6-carboxamide] it is 10 to 100 nM.
On to `CC(C)N(C)C(=O)c1cc(=O)c(O)c2n1CCN(Cc1ccc(Cl)c(Cl)c1)C2=O` [Example 62, N-isopropyl-N-methyl-2-(3,4-dichlorobenzyl)-9-hydroxy-1,8-dioxo-1,3,4,8-tetrahydro-2H-pyrido[1,2-a]pyrazine-6-carboxamide], for which the IC50 was 10 to 100 nM.
Turning to `CCN(C)C(=O)c1cc(=O)c(O)c2n1CCN(Cc1ccc(Cl)c(Cl)c1)C2=O` [Example 63, N-ethyl-N-methyl-2-(3,4-dichlorobenzyl)-9-hydroxy-1,8-dioxo-1,3,4,8-tetrahydro-2H-pyrido[1,2-a]pyrazine-6-carboxamide], the IC50 is < 10 nM.
As for `O=C1c2c(O)c(=O)ccn2CCN1Cc1ccc(F)c(Cl)c1` [Example 64, 2-(3-chloro-4-fluorobenzyl)-9-hydroxy-3,4-dihydro-2H-pyrido[1,2-a]pyrazine-1,8-dione], the IC50 fell in the range of 10 to 100 nM.
The figure for `O=C1c2c(O)c(=O)ccn2CCN1Cc1ccccc1Cl` [Example 65, 2-(2-chlorobenzyl)-9-hydroxy-3,4-dihydro-2H-pyrido[1,2-a]pyrazine-1,8-dione] is 100 to 1000 nM.
The figure for `O=C1c2c(O)c(=O)ccn2CCN1Cc1cc(Cl)cc(Cl)c1` [Example 66, 2-(3,5-dichlorobenzyl)-9-hydroxy-3,4-dihydro-2H-pyrido[1,2-a]pyrazine-1,8-dione] is 10 to 100 nM; for `CC(C)(C)c1cc(=O)c(O)c2n1CCN(Cc1ccc(Cl)c(Cl)c1)C2=O` [Example 67, 6-tert-butyl-2-(3,4-dichlorobenzyl)-9-hydroxy-3,4-dihydro-2H-pyrido[1,2-a]pyrazine-1,8-dione] it is 10 to 100 nM; for `CC(C)(C)C(O)c1cc(=O)c(O)c2n1CCN(Cc1ccc(Cl)c(Cl)c1)C2=O` (centres unmarked) [Example 68, 2-(3,4-dichlorobenzyl)-9-hydroxy-6-(1-hydroxy-2,2-dimethylpropyl)-3,4-dihydro-2H-pyrido[1,2-a]pyrazine-1,8-dione] it is 10 to 100 nM.
Take `O=c1ccn2ccn(CCCc3ccc(Cl)cc3)c(=O)c2c1O` [Example 70, 2-[3-(4-chlorophenyl)propyl]-9-hydroxy-2H-pyrido[1,2-a]pyrazine-1,8-dione]: the IC50 lay within 10 to 100 nM.
As for `O=c1ccn2ccn(CCCc3ccccc3Cl)c(=O)c2c1O` [Example 71, 2-[3-(2-chlorophenyl)propyl]-9-hydroxy-2H-pyrido[1,2-a]pyrazine-1,8-dione], the IC50 fell in the range of 10 to 100 nM.
As to `Cc1cn(Cc2ccc(Cl)c(Cl)c2)c(=O)c2c(O)c(=O)ccn12` [Example 72, 2-(3,4-dichlorobenzyl)-9-hydroxy-4-methyl-2H-pyrido[1,2-a]pyrazine-1,8-dione hydrochloride], the IC50 is < 10 nM.
The figure for `COc1ccc(CN2CCn3ccc(=O)c(O)c3C2=O)cc1Cl` [Example 73, 2-(3-chloro-4-methoxybenzyl)-9-hydroxy-3,4-dihydro-2H-pyrido[1,2-a]pyrazine-1,8-dione] is 10 to 100 nM.
Consider `N#CCc1cc(=O)c(O)c2n1CCN(Cc1ccc(Cl)c(Cl)c1)C2=O` [Example 75, [2-(3,4-dichlorobenzyl)-9-hydroxy-1,8-dioxo-1,3,4,8-tetrahydro-2H-pyrido[1,2-a]pyrazin-6-yl]acetonitrile], for which the IC50 lay in the range of 10 to 100 nM.
With `O=c1ccn2ccn(CCCc3cccc(Cl)c3)c(=O)c2c1O` [Example 76, 2-[3-(3-chlorophenyl)propyl]-9-hydroxy-2H-pyrido[1,2-a]pyrazine-1,8-dione], the IC50 lay within 10 to 100 nM.
`CC(C)c1cn(Cc2ccc(Cl)c(Cl)c2)c(=O)c2c(O)c(=O)ccn12` [Example 78, 2-(3,4-dichlorobenzyl)-9-hydroxy-4-isopropyl-2H-pyrido[1,2-a]pyrazine-1,8-dione]: the half-maximal inhibitory concentration (IC50) was < 10 nM.
`O=c1ccn2ccn(CCCc3ccc(Cl)c(Cl)c3)c(=O)c2c1O` [Example 79, 2-[3-(3,4-dichlorophenyl)propyl]-9-hydroxy-2H-pyrido[1,2-a]pyrazine-1,8-dione]: the concentration for half-maximal inhibition (IC50) is 10 to 100 nM.
On to `O=c1ccn2ccn(CCCc3cc(Cl)cc(Cl)c3)c(=O)c2c1O` [Example 80, 2-[3-(3,5-dichlorophenyl)propyl]-9-hydroxy-2H-pyrido[1,2-a]pyrazine-1,8-dione], for which the IC50 is 10 to 100 nM.
With `O=C(Cc1cc(=O)c(O)c2n1CCN(Cc1ccc(Cl)c(Cl)c1)C2=O)OCc1ccccc1` [Example 81], the IC50 was < 10 nM.
As for `O=C(OCc1ccccc1)C(Cc1ccccc1)c1cc(=O)c(O)c2n1CCN(Cc1ccc(Cl)c(Cl)c1)C2=O` (centres unmarked) [Example 82, benzyl 2-[2-(3,4-dichlorobenzyl)-9-hydroxy-1,8-dioxo-1,3,4,8-tetrahydro-2H-pyrido[1,2-a]pyrazin-6-yl]-3-phenylpropionate], the 50% inhibitory concentration (IC50) lay in the range of 10 to 100 nM.
As to `O=C1c2c(O)c(=O)cc(CCO)n2CCN1Cc1ccc(Cl)c(Cl)c1` [Example 83, 2-(3,4-dichlorobenzyl)-9-hydroxy-6-(2-hydroxyethyl)-3,4-dihydro-2H-pyrido[1,2-a]pyrazine-1,8-dione], the IC50 was in the range of 10 to 100 nM.
The value for `CCCc1cn(Cc2ccc(Cl)c(Cl)c2)c(=O)c2c(O)c(=O)ccn12` [Example 84, 2-(3,4-dichlorobenzyl)-9-hydroxy-4-propyl-2H-pyrido[1,2-a]pyrazine-1,8-dione] was < 10 nM.
The figure for `CCc1cn(Cc2ccc(Cl)c(Cl)c2)c(=O)c2c(O)c(=O)ccn12` [Example 85, 2-(3,4-dichlorobenzyl)-4-ethyl-9-hydroxy-2H-pyrido[1,2-a]pyrazine-1,8-dione] is 10 to 100 nM.
The figure for `O=c1ccn2c(CO)cn(Cc3ccc(Cl)c(Cl)c3)c(=O)c2c1O` [Example 86, 2-(3,4-dichlorobenzyl)-9-hydroxy-4-hydroxymethyl-2H-pyrido[1,2-a]pyrazine-1,8-dione] is < 10 nM.
For `CC(C)Cc1cn(Cc2ccc(Cl)c(Cl)c2)c(=O)c2c(O)c(=O)ccn12` [Example 87, 2-(3,4-dichlorobenzyl)-9-hydroxy-4-isobutyl-2H-pyrido[1,2-a]pyrazine-1,8-dione], the IC50 was < 10 nM.
For `O=c1ccn2ccn(Cc3cccc(Cl)c3)c(=O)c2c1O` [Example 88, 2-(3-chlorobenzyl)-9-hydroxy-2H-pyrido[1,2-a]pyrazine-1,8-dione hydrochloride], the concentration for half-maximal inhibition (IC50) fell in the range of 10 to 100 nM.
